Entries after “also recorded” stand apart in the source; their conditions may differ.
Tested on: antibodies in the Q1 and Q3 plasma (patient Q)
Experiment: ELISA on Q1 and Q3 specific 12-mer peptides reacted with Q1 and Q3 plasma
Assay type: binding, human
Conditions: for binding of plasma to the peptide versus background binding to a panel of 12 randomly chosen control peptides (Student's Test): Q1/Q3 plasma
Procedure: Polystyrene plates (Nunc immuno plate maxisorb F96) were coated with streptavidin by incubating overnight at 4° C. with 0.1 ml/well of a 5 μg/ml solution of streptavidin (Sigma Cat. No. S4762) in 0.1 M carbonate buffer at pH 9.6. After removal of the streptavidin solution, the wells were washed four times with a 0.1% solution of Tween 20 in PBS. Nonspecific binding was blocked by incubating each well with 0.2 ml of 2% BSA in PBS for 1 h at 20° C. The wells were again washed four times with PBS/Tween 20. Plates were air-dried and stored at 4° C. until required. The streptavidin in each well was coupled to cleaved peptides by incubation with 100 μl of a 1:100 dilution of cleaved peptide solution with 0.1% BSA in PBS containing 0.1% sodium azide for 1 h at 20° C. After incubation, the plate was washed four times with PBS/Tween 20. Each well was incubated with 100 μl of a suitable dilution of serum (diluted with 2% BSA in PBS containing 0.1% sodium azide) for 1 h at 20° C. or overnight at 4° C. followed by four washes with PBS/Tween 20. Bound antibody was detected by reaction for 1 h at 20° C. in 0.1 ml conjugate. This consisted of 0.25 ml/l (a saturating level) of horseradish peroxidase-labeled goat anti-rabbit IgG (H+L) (Kirkegaard and Perry Labs, Gaithersburg, Md.) in CASS (0.1% sheep serum, 0.1% Tween 20, 0.1% sodium caseinate diluted in 0.1M PBS, pH 7.2). The wells were washed 2 times with PBS/Tween 20 followed by two washes with PBS only. The presence of enzyme was detected by reaction for 45 min at 20° C. with 0.1 ml of a freshly-prepared solution containing 50 mg of ammonium 2,2'azino-bis[3-ethylbenzothiazoline-6-sulphonate (ABTS, Boehringer Mannheim Cat. no. 122661) and 0.03 ml of 35% (w/w) hydrogen peroxide solution in 100 ml of 0.1 M phosphate/0.08 M citrate buffer, pH 4.0. Color development was measured in a Titertek Multiscan MC plate reader in the dual wavelength mode at 405 nm against a reference wavelength of 492 nm.
To examine the effect of the amino acid substitutions observed in the Q1 and Q3 E2 HV domains on antibody binding, we synthesized a Q1 and Q3 specific 12-mer peptide from amino acids 396 to 407 (HVE Q1 or Q3 in FIG. 7B) and separately reacted the Q1 and Q3 plasma with each peptide in an ELISA.

| Sequence | binding of plasma to the peptide versus background binding to a panel of 12 randomly chosen control peptides (Student's Test) | Elisa Results on 12-mer Peptides, Mean (Q1 plasma) | Elisa Results on 12-mer Peptides, Mean (Q3 plasma) | reaction of antibodies in patient Q plasma with the peptide in ELISA (Q1 and Q3 plasma, peptides amino acids 396-407) |
| --- | --- | --- | --- | --- |
| TAGFVRLFETGP [Q3 peptide, Q3 specific 12-mer peptide from amino acids 396 to 407 of the HCV E2/NS1 HV domain] | not statistically significant | 0.691 | 0.693 | – |
| TARFAGFFQSGA [Q1 peptide, Q1 specific 12-mer peptide from amino acids 396 to 407 of the HCV E2/NS1 HV domain] | significantly above background binding | 1.158 | 1.022 | reacted with the Q1 peptide; also recorded: developed an antibody response to the Q1 peptide |

Reference: patent US6303292A, “Immunoreactive polypeptide compositions” (Chiron Corporation, priority 1998, dated 2001)
